Test results reported in patent publication US7943641B2, “7-((1H-imidazol-4-yl)methyl)-5,6,7,8-tetrahydroquinoline” (Allergan, Inc., priority 2006, dated 2011).
Structures can show the parent of a compound that is named as a salt.

Experiments:
α2A adrenergic receptor = molecular target: T1, α2A adrenergic receptor (Homo sapiens, UniProt P08913); assay: RSAT (Receptor Selection and Amplification Technology) assay, α2A; format: cell-based; conditions: NIH-3T3 cells cotransfected with receptor and G protein
T1 construct: expressed in transfected cells; host or cells: NIH-3T3 cells
T1 sequence (P08913 1-465): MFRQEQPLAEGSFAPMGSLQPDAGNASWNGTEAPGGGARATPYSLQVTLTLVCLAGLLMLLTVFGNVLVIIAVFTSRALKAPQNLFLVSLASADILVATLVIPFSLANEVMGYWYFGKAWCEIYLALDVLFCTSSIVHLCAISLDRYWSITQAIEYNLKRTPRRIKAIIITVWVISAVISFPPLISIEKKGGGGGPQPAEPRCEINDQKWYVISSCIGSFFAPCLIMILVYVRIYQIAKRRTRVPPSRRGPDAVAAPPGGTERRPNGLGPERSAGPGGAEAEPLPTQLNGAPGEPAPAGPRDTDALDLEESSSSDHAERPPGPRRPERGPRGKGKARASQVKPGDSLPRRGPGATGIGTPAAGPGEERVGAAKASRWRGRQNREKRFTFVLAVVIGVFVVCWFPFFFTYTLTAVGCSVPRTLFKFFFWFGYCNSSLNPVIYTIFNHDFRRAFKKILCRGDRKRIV
Description: Incubations continue 72-96 hr at 37° C.

[1] = tested on: IOP in the hypertensive eye; assay: Telemetry IOP model (telemetrized primate model); format: in vivo, Cynomolgus monkeys (macaca fascicularis)
Description: Cynomolgus (macaca fascicularis) monkeys weighing 3-5 kg with unilateral ocular hypertension in the right eye (OD) are used. Sustained elevated IOP is created by circumferential argon laser photocoagulation (Zeiss Visulas 532) of the mid-trabecular meshwork according to the method of Gaasterland and Kupfer (5). IOPs are assessed at T=−0.1, 0, 1, 2, 4, and 6, hours with an optional reading at 24 hours using an applanation pneumatonometer (Model 30 Classic, mentor Co). A drop of proparacaine (Allergan, Inc.) is instilled into the eyes just prior to IOP measurements. Monkeys are chaired and conditioned for tonometry for months before initiation of the study. Results are averaged from the 2 hr to the 6 hr time points (averages for each animal are calculated and the group mean determined) in an effort to simplify and standardize the data and include a comparison of sustained responses. Depending on the design of the study, either a paired or unpaired Student's t test is done. P<0.05 is considered significant.
Telemetry IOP model. Cynomolgus monkeys (3-5 kg) are made unilaterally ocular hypertensive by argon laser as noted above. The telemetry implant procedure is performed following elevation of IOP. Briefly, the scalp is prepared for aseptic surgery, followed by a 4 cm incision and tissue blunt-dissection to form a pocket in the underlying fascia to contain the pressure transducer. The catheter from the transducer is then guided subcutaneously to the orbit, and inserted into the vitreous cavity of the glaucoma eye through a small opening in the pars plana which is sutured closed and fixed with tissue adhesive. Receivers are placed into the animal cages and connected to a computer running Dataquest software for data capture. Animals are housed in a 12 hours light, 12 hours dark cycle: 6:00 AM ON, 6:00 PM OFF. Animals are used in drug studies following recovery from the surgical procedure which takes 2 weeks to 1 month. Dosing is done by transferring animals to restraining chairs. Animals are dosed without the aid of a sedative. […]

Row | Structure (SMILES) | EC50 (α2A adrenergic receptor) [nM] | % IOP decrease from baseline in the hypertensive eye ([1]; dose 0.30%) [%] | % IOP decrease from baseline in the hypertensive eye ([1]; dose 0.15%) [%]
1 | c1cnc2c(c1)CCC(Cc1c[nH]cn1)C2 (racemic) [racemic mixture, 7-(1H-Imidazol-4-ylmethyl)-5,6,7,8-tetrahydro-quinoline dihydrochloride] | 3.9 | 30 | –
2 | c1cnc2c(c1)CCC(Cc1c[nH]cn1)C2 (single isomer, unassigned; (+)) [(+) enantiomer, (+)-7-(1H-imidazol-4-ylmethyl)-5,6,7,8-tetrahydro-quinoline dihydrochloride] | 2.9 | – | 30
3 | c1cnc2c(c1)CCC(Cc1c[nH]cn1)C2 (single isomer, unassigned; (-)) [(−) enantiomer, (−) 7-((1H-imidazol-4-yl)methyl)-5,6,7,8-tetrahydroquinoline] | 58.4 | 0 | –
